Measurements as given in patent US5506102A (priority 1993, dated 1996).

Experiments:
[1] = tested on: human progesterone receptor isoform PR-B; assay: PR-B transactivation of MMTV-LUC reporter, transient transfection; format: cell-based; details: 10^-7 M progesterone
Protocol: The cells were then incubated with either progesterone or an inert vehicle (ethanol (ETOH)). Western immunoblot analysis using two PR specific monoclonal antibodies (B30 and AB52, available from Dean Edwards, University of Colorado) confirmed that no hPR-A was synthesized from our PR-B constructs.

[2] = tested on: PR-B (co-expressed with PR-A); assay: PR-A effect on PR-B mediated PRE2 tk-LUC transcription (co-transfection); format: cell-based, human
Protocol: FIGS. 4A-4B are a series of graphs showing CV-1 ([…]) or HepG2 (FIG. 4B) cells that were transiently transfected with either […] of phPR-B or phPR-A alone, or phPR-B in the presence of increasing concentrations of phPR-A, together with 5 µg/ml of the PRE2 tk-LUC reporter and 5 µg/ml of pCH110 as an internal control. HeLa cells (FIG. 4C) were transfected with either phPR-B or phPR-A together with 5 µg/ml of the pTAT2950 reporter and 5 µg/ml of pCH110 as an internal control. […] The relative luciferase activity is calculated by dividing the normalized luciferase value at a given point by that obtained in the absence of transfected receptor or ligand. The data shown represent the mean +/- average deviation from the mean of triplicate estimations;
Both reporter plasmids were digested with XhoI and HindIII restriction enzymes and a 6.7 Kb fragment from MMTV-LUC and a 0.12 Kb fragment from PRE2 tk-CAT were isolated and ligated, resulting in a plasmid called PRE2 tk-LUC.
Cells were seeded in 12-well, 96-well or 10 cm tissue culture plates. […] 20 μg of DNA/ml of transfection buffer were used in each transfection reaction. […]

human estrogen receptor = molecular target: T1, human estrogen receptor (Homo sapiens, UniProt P03372); assay: ER transcriptional activity on MMTV-ERE-LUC, CV-1 cells, ER alone; format: cell-based; details: 10^-7 M 17β-estradiol
T1 construct: expressed in transfected cells; host or cells: CV-1
T1 sequence (P03372 1-595): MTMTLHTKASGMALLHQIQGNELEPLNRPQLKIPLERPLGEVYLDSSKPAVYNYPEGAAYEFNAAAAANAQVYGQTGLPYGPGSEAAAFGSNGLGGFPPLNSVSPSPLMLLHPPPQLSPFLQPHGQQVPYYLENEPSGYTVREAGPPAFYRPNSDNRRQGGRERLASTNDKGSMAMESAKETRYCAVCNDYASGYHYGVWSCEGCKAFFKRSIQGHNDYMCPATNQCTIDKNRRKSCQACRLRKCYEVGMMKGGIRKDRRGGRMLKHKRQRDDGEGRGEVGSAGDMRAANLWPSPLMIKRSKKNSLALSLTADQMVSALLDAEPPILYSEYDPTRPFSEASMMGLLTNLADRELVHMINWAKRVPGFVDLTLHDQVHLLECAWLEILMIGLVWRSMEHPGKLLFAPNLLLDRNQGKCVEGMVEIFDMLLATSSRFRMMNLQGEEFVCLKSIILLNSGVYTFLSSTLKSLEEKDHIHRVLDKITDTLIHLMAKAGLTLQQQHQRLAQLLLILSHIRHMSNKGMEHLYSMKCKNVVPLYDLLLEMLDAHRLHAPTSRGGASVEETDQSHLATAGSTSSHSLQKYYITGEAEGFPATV
Protocol: All values were normalized for transfection efficiency by simultaneous estimation of luciferase and β-galactocidase activities. The relative luciferase activity is calculated by dividing the normalized luciferase value at a given point by that obtained in the absence of transfected receptor or ligand. Data shown represent the mean +/- the average deviation from the mean of triplicate estimations.
Experimental protocols and data calculation are as described in FIG. 11. The experiment detailed above is representative of independent assays (N>3). Data shown represent the mean +/- the average deviation from the mean of triplicate estimations.
Vegeto et al., supra. Cells were plated into 96-well tissue culture plates. The vector DNA was introduced into the CV-1 cells using calcium phosphate coprecipitation as described herein. More specifically, 20 μg of DNA/ml of transfection buffer were used in each transfection. […] The concentration of pXVhPR-A vector chosen was determined by performing the experiment at several different concentrations of vector, and then using that concentration that was optimal for transcriptional readout. […] The Normalized LUC activity was calculated by dividing the raw luciferase (×10^4) units for each point by the β-galactosidase activity [(OD415 nm ×10^5)/time min.] at that point.

CC(=O)[C@H]1CC[C@H]2[C@@H]3CCC4=CC(=O)CC[C@]4(C)[C@H]3CC[C@]12C [progesterone]
progesterone mediated activation of the MMTV promoter ([1]; CV-1 cells, PR-B, FIG. 2A): permitted progesterone mediated activation of the MMTV promoter
activation of the MMTV promoter by PR-B ([1]; HepG2 cells, FIG. 2C): both PR-A and PR-B functioned as efficient activators
PR-A effect on PR-B activity on PRE2 tk-LUC ([2]; CV-1, 10^-7 M progesterone, FIG. 4A): repression of PR-B activity
PR-A effect on PR-B transcriptional activity on PRE2 tk-LUC ([2]; HepG2, 10^-7 M progesterone, FIG. 4B): no effect on PR-B transcriptional activity
direct effects on ER (human estrogen receptor): no direct effects on ER were observed
